Test results taken from paper PMC10515640, “Structure-Based Optimization of Covalent, Small-Molecule Stabilizers of the 14-3-3σ/ERα Protein–Protein Interaction from Nonselective Fragments” (Journal of the American Chemical Society, 2023).

Legend:
[1] = biological target: T1, 14-3-3σ/C-RAF (Homo sapiens, UniProt P31947); test: Mass spectrometry dose response, compound binding to 14-3-3σ in the presence of C-RAF phosphopeptide; conditions: 100 nM compound, 100 nM 14-3-3σ, C-RAF peptide 18 µM
T1 construct: The 14-3-3 σ isoform (full-length for mass spectrometry and fluorescence anisotropy assays, ΔC for crystallography); made in house; host or cells: E. coli Rosetta 2(DE3)pLysS, pPROEX HTb vector
T1 sequence (P31947 1-248): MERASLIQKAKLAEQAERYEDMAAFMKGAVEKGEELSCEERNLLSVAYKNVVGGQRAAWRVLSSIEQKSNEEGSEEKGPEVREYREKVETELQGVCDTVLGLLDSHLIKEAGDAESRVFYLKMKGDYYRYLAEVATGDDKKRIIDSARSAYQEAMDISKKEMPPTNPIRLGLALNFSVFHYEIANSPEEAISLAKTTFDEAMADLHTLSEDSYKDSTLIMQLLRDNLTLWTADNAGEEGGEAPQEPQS
From the text: (§1) Two orthogonal assays were developed for screening. For the primary assay, mass spectrometry (MS) was used to monitor the formation of the covalent bond between the compound and the native cysteine (Cys38 on 14-3-3σ) (Figure 1D). The assay was first performed in the absence of peptide to determine binding to 14-3-3σ only (apo screening, D1) and then in the presence of both 14-3-3σ and the peptide as an indication of how much the peptide stabilized compound binding (D2). […] As a secondary assay, fluorescence anisotropy (FA) was used. In this case, compounds were titrated to mixtures of 14-3-3σ and FAM-labeled peptides. […] Thus, the two assays are highly complementary; the MS assay reports on compound binding and the FA assay reports on peptide binding. […]
(§2) Mass spectrometry dose response assays were performed on a Waters Acquity UPLC/ Xevo G2-XS Q-Tof mass spectrometer. A Waters UPLC Protein BEH-C4 Column (300 Å, 1.7 μm, 2.1 mm x 50 mm) was used to desalt the samples prior to application on the mass spectrometer. For 19-point MS dose responses, 50 mM compound stocks in DMSO were serially diluted in 3-fold increment in a master plate, then 1000 nl of the compounds were transferred in the assay plates. Master mixes containing 100 nM full-length wild type 14-3-3σ in the absence or presence of […]
(§3) Assay buffer was TRIS (10 mM, pH 8.0) and final volume per well was 50 μl, with final top concentration of compounds dose response series at 1 mM. The reaction mixtures were incubated for 1h at rt before subjected to MS. Four measurements (1h, 8h, 16h, 24h) were performed for time-course experiments. The injection volume for each sample was 6 μl. 24 μl of sample were needed for the time-course experiments, so the total volume in the assay plate was adjusted to 50 μl, to account for the dead volume in the injections. Data collection and automated processing followed a custom workflow, as previously described.1 z Plots were created using GraphPad Prism with the log(agonist) vs. response (variable slope, four parameters) fitting model. […]

[2] = biological target: T2, 14-3-3σ/ERα (Homo sapiens, UniProt P03372+P31947); test: Mass spectrometry dose response, compound binding to 14-3-3σ in the presence of ERα phosphopeptide; conditions: 100 nM compound, 100 nM 14-3-3σ, ERα-peptide 2 µM
T2 construct: The 14-3-3 σ isoform (full-length for mass spectrometry and fluorescence anisotropy assays, ΔC for crystallography); made in house; host or cells: E. coli Rosetta 2(DE3)pLysS, pPROEX HTb vector
From the text: as §1, §2, §3

[3] = biological target: T2, 14-3-3σ/ERα; test: Fluorescence anisotropy compound titration, FAM-labeled ERα peptide; assay type: binding; conditions: 10 nM ERα-FAM labeled peptide, 1 µM 14-3-3σ, overnight incubation (24 h); read-out: EC50 value ERα (FA compound titration)
From the text: as §1
(§4) diluted in buffer (10 mM HEPES, pH 7.5, 150 mM NaCl, 0.1% Tween20, 1 mg/mL Bovine Serum Albumin (BSA; Sigma-Aldrich). Final DMSO in the assay was always 1%. Dilution series of 14-3-3 proteins or compounds were made in […]
(§5) Compound titrations were made by titrating the compound in a 2-fold dilution series (starting at 500 or 1000 µM) to a mix of fluorescein-labeled peptide (10 nM) and 14-3-3σ (concentration at approximately the EC20 to EC30 value of the protein-peptide complex; 1 µM for ERα and 5 µM for C-RAF). Using the ~EC25 value makes the assay sensitive for measuring an increase in PPI formation. Fluorescence anisotropy measurements were performed directly and after overnight incubation at room temperature. […]
(§6) Wells containing only FAM-peptide were used to set as G-factor at 35 mP. Data reported are at endpoint. EC50 and apparent Kd values were obtained from fitting the data with a four-parameter logistic model (4PL) in GraphPad Prism 7 for Windows. Data was obtained and averaged based on either three (compound titrations) or two (protein titrations) independent experiments.

[4] = biological target: T1, 14-3-3σ/C-RAF; test: Fluorescence anisotropy compound titration, FAM-labeled C-RAF peptide; assay type: binding; conditions: 10 nM C-RAF-FAM labeled peptide, 5 µM 14-3-3σ, overnight incubation; read-out: EC50 value C-RAF (FA compound titration)
From the text: as §1, §4, §5, §6

[5] = biological target: T3, 14-3-3σ (Homo sapiens, UniProt P31947); test: Mass spectrometry dose response, compound binding to 14-3-3σ in the absence of peptide (apo); conditions: 100 nM compound, 100 nM 14-3-3σ
T3 construct: The 14-3-3 σ isoform (full-length for mass spectrometry and fluorescence anisotropy assays, ΔC for crystallography); made in house; host or cells: E. coli Rosetta 2(DE3)pLysS, pPROEX HTb vector
T3 sequence (P31947 1-248): T1 sequence (P31947 1-248)
From the text: as §1, §2, §3

Compound | Percentage (%) bound of compound to 14-3-3σ, CRAF 1h [1] | Percentage (%) bound of compound to 14-3-3σ, CRAF 8h [1] | Percentage (%) bound of compound to 14-3-3σ, CRAF 24h ([1]; 24h) | Percentage (%) bound of compound to 14-3-3σ, CRAF 24h ([1]; head prints 24h) | Percentage (%) bound of compound to 14-3-3σ, ERα 1h [2] | Percentage (%) bound of compound to 14-3-3σ, ERα 8h [2] | Percentage (%) bound of compound to 14-3-3σ, ERα 16h [2] | Percentage (%) bound of compound to 14-3-3σ, ERα 24h [2] | EC50 [3] | EC50 [4] | Percentage (%) bound of compound to 14-3-3σ, APO 1h [5] | Percentage (%) bound of compound to 14-3-3σ, APO 8h [5] | Percentage (%) bound of compound to 14-3-3σ, APO 16h [5] | Percentage (%) bound of compound to 14-3-3σ, APO 24h [5]
O=C(CCl)NCC1CCN(C(=O)C2(Oc3ccccc3)CCCC2)CC1 [compound 119] | 6.2% | 19.7% | 53.6% | 28.5% | 1.9% | 5.3% | 10.9% | 21.0% | 24 ± 2 µM | 18 ± 0.3 µM | 0% | 1.0% | 1.0% | 2.5%
O=C(CCl)NCC1CCN(C(=O)C2(Nc3ccccc3)CCCC2)CC1 [compound 120] | 0% | 0% | 0% | 0% | 0% | 0% | 0% | 4.5% | > 150 µM | > 150 µM | 0% | 0% | 0% | 0%
O=C(CCl)NCC1CCN(C(=O)C2(Oc3ccc(Cl)cc3)CCCCC2)CC1 [compound 122] | 1.5% | 4.8% | 17.5% | 8.9% | 1.6% | 7.1% | 11.5% | 32.3% | 55 ± 14 µM | > 150 µM | 0% | 0% | 0.8% | 1.3%
O=C(CCl)NCC1CCN(C(=O)C2(Oc3ccc(Cl)cc3)CCC(F)(F)CC2)CC1 [compound 124] | 2.0% | 2.9% | 15.3% | 9.1% | 7.4% | 15.3% | 33.4% | 66.9% | 18 ± 0.4 µM | > 150 µM | 0% | 1.0% | 1.4% | 1.6%

These reach a lower EC50 [3]. Values come first.

Percentage (%) bound of compound to 14-3-3σ, CRAF 1h [1] | Percentage (%) bound of compound to 14-3-3σ, CRAF 8h [1] | Percentage (%) bound of compound to 14-3-3σ, CRAF 24h ([1]; 24h) | Percentage (%) bound of compound to 14-3-3σ, CRAF 24h ([1]; head prints 24h) | Percentage (%) bound of compound to 14-3-3σ, ERα 1h [2] | Percentage (%) bound of compound to 14-3-3σ, ERα 8h [2] | Percentage (%) bound of compound to 14-3-3σ, ERα 16h [2] | Percentage (%) bound of compound to 14-3-3σ, ERα 24h [2] | EC50 [3] | EC50 [4] | Percentage (%) bound of compound to 14-3-3σ, APO 1h [5] | Percentage (%) bound of compound to 14-3-3σ, APO 8h [5] | Percentage (%) bound of compound to 14-3-3σ, APO 16h [5] | Percentage (%) bound of compound to 14-3-3σ, APO 24h [5] | Compound
10.7% | 21.4% | 47.3% | 33.7% | 5.6% | 15.7% | 34.4% | 63.7% | 15 ± 2 µM | 32 ± 8 µM | 0% | 0.3% | 0.8% | 1.1% | O=C(CCl)NCC1CCN(C(=O)C2(Oc3ccc(Cl)cc3)CCCC2)CC1 [compound 117]
4.9% | 7.6% | 23.2% | 12.4% | 13.8% | 30.0% | 64.6% | 87.5% | 12 ± 2 µM | > 150 µM | 0.4% | 1.1% | 2.1% | 6.2% | O=C(CCl)NCC1CCN(C(=O)C2(Nc3ccc(Cl)cc3)CCC(F)(F)CC2)CC1 [compound 125]
0.0% | 1.0% | 4.7% | 3.6% | 1.7% | 6.2% | 9.1% | 15.1% | 9 ± 2 µM | > 150 µM | 0% | 0% | 0% | 1.0% | O=C(CCl)NCC1CCN(C(=O)C2(Oc3ccc(Cl)cc3)CCOCC2)CC1 [compound 126]
1.0% | 1.9% | 3.5% | 1.9% | 3.4% | 8.3% | 20.8% | 63.9% | 8 ± 1 µM | 59 ± 4 µM | 0.0% | 1.0% | 1.0% | 1.9% | O=C(CCl)NCC1CCN(C(=O)C2(Nc3ccc(Cl)cc3)CCCCC2)CC1 [compound 123]
